# Columns and labels:
# ShC4 strain = assay: ShC4 antibiotic sensitivity test (antibiotic sensitivity tablets); format: cell-based, Staphylococcus hominis; conditions: for Mean diameter (mm) of inhibitory ring: antibiotic content per tablet, 36±1° C., 24 hours, three replicates; for sensitivity of ShC4 strain to the antibiotic (in words): summary of Table 1
# [1] = tested on: Dunkin Hartley guinea pigs; conditions: 200 μL applied on D0, D7, D14, provocation D28; ShC4 2E10 CFU; scored to 72 hours after stimulation
# [2] = standard for oxacillin and piperacillin
# [3] = standard for tetracycline and minocycline
# [4] = standard for penicillin and ampicillin
Molecule,Mean diameter (mm) of inhibitory ring (ShC4 strain),sensitivity of ShC4 strain to the antibiotic (in words) (ShC4 strain),other results
CCN1CCN(C(=O)N[C@@H](C(=O)N[C@@H]2C(=O)N3[C@@H]2SC(C)(C)[C@@H]3C(=O)O)c2ccccc2)C(=O)C1=O [Piperacillin],18.86 mm,sensitive,Sensitivity (ShC4 strain; [2]): S (≥18)
CC[C@H]1OC(=O)[C@H](C)[C@@H](O[C@H]2C[C@@](C)(OC)[C@@H](O)[C@H](C)O2)[C@H](C)[C@@H](O[C@@H]2O[C@H](C)C[C@H](N(C)C)[C@H]2O)[C@](C)(O)C[C@@H](C)C(=O)[C@H](C)[C@@H](O)[C@]1(C)O [erythromycin],23.96 mm,sensitive,Sensitivity (ShC4 strain; standard for erythromycin): S (≥23)
CN(C)c1ccc(O)c2c1C[C@H]1C[C@H]3[C@H](N(C)C)C(O)=C(C(N)=O)C(=O)[C@@]3(O)C(O)=C1C2=O [minocycline],29.33 mm,–,Sensitivity (ShC4 strain; [3]): S (≥19)
CC1(C)S[C@@H]2[C@H](NC(=O)[C@H](N)c3ccccc3)C(=O)N2[C@H]1C(=O)O [ampicillin],16.69 mm,resistance,Sensitivity (ShC4 strain; [4]): R (≤28)
CN(C)[C@@H]1C(O)=C(C(N)=O)C(=O)[C@@]2(O)C(O)=C3C(=O)c4c(O)cccc4[C@@](C)(O)[C@H]3C[C@@H]12 [tetracycline],25.85 mm,–,Sensitivity (ShC4 strain; [3]): S (≥19)
Penicillin [Penicillin (P)],15.72 mm,resistance,Sensitivity (ShC4 strain; [4]): R (≤28)
cotrimoxazole,0 mm,resistance,–
"Cc1onc(-c2ccccc2)c1C(=O)N[C@@H]1C(=O)N2[C@@H]1SC(C)(C)[C@@H]2C(=O)O [Oxacillin (OX), Oxacillin]",29.4 mm,sensitive,Sensitivity (ShC4 strain; [2]): S (≥18)
"2,4-dinitrochlorobenzene [CDNB]",–,–,allergy rate [1]: 100%

# — US20260014210A1, “SYMBIOTIC BACTERIUM IN HUMANS FOR PROMOTING HAIR GROWTH AND USE THEREOF” (priority 2022, published 2026)
